Results: patent publication US7074789B2, “Kinase inhibitors” (Amgen Inc., priority 1999, dated 2006)

Tests used:
Assay type in all cases: biochemical
Tek = target: T1, Tek (Homo sapiens, UniProt Q02763); experiment: Kinase inhibition assay (33P transfer), Tek; details: read-out: Tek-1
T1 construct: Kinases are expressed as either kinase domains or full length constructs; made in house
Procedure, shortened: (§1)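 Recombinant kinase domains or full-length GST- or His-tagged constructs, from E. coli or baculovirus/High Five cells, sometimes with regulatory polypeptides. Transfer of 33P from ATP to plate-bound poly(Glu,Tyr) 4:1 or poly(Arg,Ser) 3:1 counted by liquid scintillation after phosphoric acid wash; IC50 is the concentration halving incorporation.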

Ret-1 = target: T2, Ret-1 (Homo sapiens, UniProt P07949); experiment: Kinase inhibition assay (33P transfer), Ret; details: Table 6, Ret-1 kinase inhibition class
T2 construct: Kinases are expressed as either kinase domains or full length constructs; made in house

Hck-1 = target: T3, Hck-1 (Homo sapiens, UniProt P08631); experiment: Kinase inhibition assay (33P transfer), Hck; details: Table 6, Hck-1 kinase inhibition class
T3 construct: Kinases are expressed as either kinase domains or full length constructs; made in house

c-Met = target: T4, c-Met (Homo sapiens, UniProt P08581); experiment: Kinase inhibition assay (33P transfer), c-Met; details: Table 2, kinase inhibition class; read-out: Met-1
T4 construct: Kinases are expressed as either kinase domains or full length constructs; made in house
Procedure, shortened: as §1

Fyn = target: T5, Fyn (Homo sapiens, UniProt P06241); experiment: Kinase inhibition assay (33P transfer), Fyn; details: read-out: Fyn-1
T5 construct: Kinases are expressed as either kinase domains or full length constructs; made in house
Procedure, shortened: as §1

Src = target: T6, Src (Homo sapiens, UniProt P12931); experiment: Kinase inhibition assay (33P transfer), Src; details: Table 6, Src-1 kinase inhibition class
T6 construct: Kinases are expressed as either kinase domains or full length constructs; made in house
Procedure, shortened: as §1

Itk = target: T7, Itk (Homo sapiens, UniProt Q08881); experiment: Kinase inhibition assay (33P transfer), Itk; details: read-out: Itk-1
T7 construct: Kinases are expressed as either kinase domains or full length constructs; made in house
T7 sequence (Q08881 1-620): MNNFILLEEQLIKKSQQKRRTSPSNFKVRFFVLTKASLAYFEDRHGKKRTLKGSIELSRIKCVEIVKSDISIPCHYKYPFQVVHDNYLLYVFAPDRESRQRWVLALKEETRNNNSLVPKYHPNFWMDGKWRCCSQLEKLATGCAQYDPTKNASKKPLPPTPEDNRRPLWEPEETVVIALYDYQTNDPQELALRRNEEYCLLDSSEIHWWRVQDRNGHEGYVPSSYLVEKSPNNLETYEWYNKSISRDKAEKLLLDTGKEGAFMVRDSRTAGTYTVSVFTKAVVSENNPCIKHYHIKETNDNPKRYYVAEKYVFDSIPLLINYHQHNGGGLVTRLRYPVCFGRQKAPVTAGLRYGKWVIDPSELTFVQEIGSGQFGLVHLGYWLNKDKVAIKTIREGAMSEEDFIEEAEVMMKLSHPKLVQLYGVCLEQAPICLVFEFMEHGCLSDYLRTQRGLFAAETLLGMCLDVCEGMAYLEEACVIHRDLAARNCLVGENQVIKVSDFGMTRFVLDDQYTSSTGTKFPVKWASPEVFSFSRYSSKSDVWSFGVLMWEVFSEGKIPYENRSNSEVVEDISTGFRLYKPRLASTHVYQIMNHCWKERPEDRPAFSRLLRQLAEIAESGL
Procedure, shortened: as §1

Kdr = target: T8, Kdr (Homo sapiens, UniProt P35968); experiment: Kinase inhibition assay (33P transfer), Kdr; details: read-out: KDR-1
T8 construct: Kinases are expressed as either kinase domains or full length constructs; made in house
Procedure, shortened: (§2)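 Activity was read as 33P incorporation, counted by liquid scintillation after a 0.5% phosphoric acid wash, into poly(Glu,Tyr) 4:1 or poly(Arg,Ser) 3:1 substrates coated on plates. Enzymes were tagged (GST or polyHis) kinase domains or full-length proteins from bacterial or insect-cell expression, sometimes with regulatory polypeptides.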

ErbB4 = target: T9, ErbB4 (Homo sapiens, UniProt Q15303); experiment: Kinase inhibition assay (33P transfer), ErbB4; details: read-out: ErbB4-1
T9 construct: Kinases are expressed as either kinase domains or full length constructs; made in house

Zap-70 = target: T10, Zap-70 (Homo sapiens, UniProt P43403); experiment: Kinase inhibition assay (33P transfer), Zap-70; details: read-out: Zap-1
T10 construct: Kinases are expressed as either kinase domains or full length constructs; made in house
T10 sequence (P43403 1-619): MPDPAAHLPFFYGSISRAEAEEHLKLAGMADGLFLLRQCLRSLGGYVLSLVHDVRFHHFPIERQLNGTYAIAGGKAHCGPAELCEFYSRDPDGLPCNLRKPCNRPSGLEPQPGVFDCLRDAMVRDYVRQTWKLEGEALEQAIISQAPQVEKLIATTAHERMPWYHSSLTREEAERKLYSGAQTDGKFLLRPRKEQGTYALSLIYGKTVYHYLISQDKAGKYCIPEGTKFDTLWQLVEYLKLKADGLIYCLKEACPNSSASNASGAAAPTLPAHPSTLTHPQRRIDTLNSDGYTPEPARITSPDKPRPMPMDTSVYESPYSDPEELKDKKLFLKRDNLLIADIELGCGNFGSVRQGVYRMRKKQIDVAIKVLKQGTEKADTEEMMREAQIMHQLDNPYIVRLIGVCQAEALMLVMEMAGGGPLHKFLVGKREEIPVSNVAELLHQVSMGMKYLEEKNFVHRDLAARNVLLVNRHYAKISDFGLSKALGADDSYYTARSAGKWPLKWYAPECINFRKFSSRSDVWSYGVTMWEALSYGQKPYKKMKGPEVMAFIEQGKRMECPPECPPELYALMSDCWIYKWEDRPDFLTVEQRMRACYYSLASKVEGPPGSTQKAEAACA
Procedure, shortened: as §2

Flt-1 = target: T11, Flt-1 (Homo sapiens, UniProt P17948); experiment: Kinase inhibition assay (33P transfer), Flt-1
T11 construct: Kinases are expressed as either kinase domains or full length constructs; made in house
Procedure, shortened: as §1

ErbB2 = target: T12, ErbB2 (Homo sapiens, UniProt P04626); experiment: Kinase inhibition assay (33P transfer), ErbB2; details: read-out: ErbB2-2
T12 construct: Kinases are expressed as either kinase domains or full length constructs; made in house
Procedure, shortened: as §1

IGFR-1 = target: T13, IGFR-1 (Homo sapiens, UniProt P08069); experiment: Kinase inhibition assay, IGFR-1 (Table 2); details: Table 2, kinase inhibition class
T13 construct: Kinases are expressed as either kinase domains or full length constructs; made in house

EGFR = target: T14, EGFR (Homo sapiens, UniProt P00533); experiment: Kinase inhibition assay (33P transfer), EGFR; details: Table 2, kinase inhibition class; read-out: EGFR-1
T14 construct: Kinases are expressed as either kinase domains or full length constructs; made in house
Procedure, shortened: as §1

Lyn = target: T15, Lyn (Homo sapiens, UniProt P07948); experiment: Kinase inhibition assay (33P transfer), Lyn; details: Table 6, Lyn-1 kinase inhibition class
T15 construct: Kinases are expressed as either kinase domains or full length constructs; made in house
Procedure, shortened: as §1

PDGFRB = target: T16, PDGFRB (Homo sapiens, UniProt P09619); experiment: Kinase inhibition assay (33P transfer), PDGFRB; details: read-out: PDGFRB-1
T16 construct: Kinases are expressed as either kinase domains or full length constructs; made in house

AKT = target: T17, AKT (Homo sapiens, UniProt Q9Y243); experiment: Kinase inhibition assay (33P transfer), AKT; details: Table 2, kinase inhibition class; read-out: AKT3-1
T17 construct: Kinases are expressed as either kinase domains or full length constructs; made in house
Procedure, shortened: as §2

FGFR1 = target: T18, FGFR1 (Homo sapiens, UniProt P11362); experiment: Kinase inhibition assay (33P transfer), FGFR1; details: read-out: FGFR1-1
T18 construct: Kinases are expressed as either kinase domains or full length constructs; made in house

Lck = target: T19, Lck (Homo sapiens, UniProt P06239); experiment: Kinase inhibition assay (33P transfer), Lck; details: read-out: Lck-1
T19 construct: Kinases are expressed as either kinase domains or full length constructs; made in house
Procedure, shortened: as §2

T4 sequence (P08581 25-1390): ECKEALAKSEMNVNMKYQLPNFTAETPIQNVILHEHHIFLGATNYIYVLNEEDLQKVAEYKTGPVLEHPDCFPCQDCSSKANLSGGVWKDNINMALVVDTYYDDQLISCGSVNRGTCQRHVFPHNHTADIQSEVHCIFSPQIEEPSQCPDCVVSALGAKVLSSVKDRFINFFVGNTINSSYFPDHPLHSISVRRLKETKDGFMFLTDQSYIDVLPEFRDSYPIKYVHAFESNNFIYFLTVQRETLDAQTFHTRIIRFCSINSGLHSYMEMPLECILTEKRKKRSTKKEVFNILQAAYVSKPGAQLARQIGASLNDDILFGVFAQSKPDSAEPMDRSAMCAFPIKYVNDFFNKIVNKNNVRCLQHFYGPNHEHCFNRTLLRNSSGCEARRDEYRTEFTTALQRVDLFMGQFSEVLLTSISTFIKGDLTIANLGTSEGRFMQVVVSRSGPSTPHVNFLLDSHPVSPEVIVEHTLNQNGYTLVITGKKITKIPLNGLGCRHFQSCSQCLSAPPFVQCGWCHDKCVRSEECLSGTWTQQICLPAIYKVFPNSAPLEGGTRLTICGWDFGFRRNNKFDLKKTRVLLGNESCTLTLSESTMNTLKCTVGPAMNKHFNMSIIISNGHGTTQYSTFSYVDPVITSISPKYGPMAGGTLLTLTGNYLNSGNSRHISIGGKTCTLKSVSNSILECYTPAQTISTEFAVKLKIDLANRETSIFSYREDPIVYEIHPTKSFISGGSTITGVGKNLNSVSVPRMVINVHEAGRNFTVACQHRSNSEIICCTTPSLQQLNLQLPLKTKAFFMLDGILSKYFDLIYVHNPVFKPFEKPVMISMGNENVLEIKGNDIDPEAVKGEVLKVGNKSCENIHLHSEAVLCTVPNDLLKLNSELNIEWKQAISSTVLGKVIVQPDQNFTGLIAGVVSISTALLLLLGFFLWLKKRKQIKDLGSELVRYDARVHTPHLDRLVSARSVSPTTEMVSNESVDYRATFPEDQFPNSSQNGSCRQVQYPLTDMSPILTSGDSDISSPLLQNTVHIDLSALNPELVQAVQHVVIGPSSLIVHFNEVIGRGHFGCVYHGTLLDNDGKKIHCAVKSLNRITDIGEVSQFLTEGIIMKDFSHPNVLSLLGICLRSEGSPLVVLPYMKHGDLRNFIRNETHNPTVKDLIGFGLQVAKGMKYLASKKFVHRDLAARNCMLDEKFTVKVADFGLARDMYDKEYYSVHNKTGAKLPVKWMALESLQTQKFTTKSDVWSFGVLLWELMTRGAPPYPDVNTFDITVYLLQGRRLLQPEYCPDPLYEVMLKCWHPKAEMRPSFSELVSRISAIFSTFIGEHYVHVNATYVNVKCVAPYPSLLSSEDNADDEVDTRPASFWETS
T8 sequence (P35968 20-1356, species assumed): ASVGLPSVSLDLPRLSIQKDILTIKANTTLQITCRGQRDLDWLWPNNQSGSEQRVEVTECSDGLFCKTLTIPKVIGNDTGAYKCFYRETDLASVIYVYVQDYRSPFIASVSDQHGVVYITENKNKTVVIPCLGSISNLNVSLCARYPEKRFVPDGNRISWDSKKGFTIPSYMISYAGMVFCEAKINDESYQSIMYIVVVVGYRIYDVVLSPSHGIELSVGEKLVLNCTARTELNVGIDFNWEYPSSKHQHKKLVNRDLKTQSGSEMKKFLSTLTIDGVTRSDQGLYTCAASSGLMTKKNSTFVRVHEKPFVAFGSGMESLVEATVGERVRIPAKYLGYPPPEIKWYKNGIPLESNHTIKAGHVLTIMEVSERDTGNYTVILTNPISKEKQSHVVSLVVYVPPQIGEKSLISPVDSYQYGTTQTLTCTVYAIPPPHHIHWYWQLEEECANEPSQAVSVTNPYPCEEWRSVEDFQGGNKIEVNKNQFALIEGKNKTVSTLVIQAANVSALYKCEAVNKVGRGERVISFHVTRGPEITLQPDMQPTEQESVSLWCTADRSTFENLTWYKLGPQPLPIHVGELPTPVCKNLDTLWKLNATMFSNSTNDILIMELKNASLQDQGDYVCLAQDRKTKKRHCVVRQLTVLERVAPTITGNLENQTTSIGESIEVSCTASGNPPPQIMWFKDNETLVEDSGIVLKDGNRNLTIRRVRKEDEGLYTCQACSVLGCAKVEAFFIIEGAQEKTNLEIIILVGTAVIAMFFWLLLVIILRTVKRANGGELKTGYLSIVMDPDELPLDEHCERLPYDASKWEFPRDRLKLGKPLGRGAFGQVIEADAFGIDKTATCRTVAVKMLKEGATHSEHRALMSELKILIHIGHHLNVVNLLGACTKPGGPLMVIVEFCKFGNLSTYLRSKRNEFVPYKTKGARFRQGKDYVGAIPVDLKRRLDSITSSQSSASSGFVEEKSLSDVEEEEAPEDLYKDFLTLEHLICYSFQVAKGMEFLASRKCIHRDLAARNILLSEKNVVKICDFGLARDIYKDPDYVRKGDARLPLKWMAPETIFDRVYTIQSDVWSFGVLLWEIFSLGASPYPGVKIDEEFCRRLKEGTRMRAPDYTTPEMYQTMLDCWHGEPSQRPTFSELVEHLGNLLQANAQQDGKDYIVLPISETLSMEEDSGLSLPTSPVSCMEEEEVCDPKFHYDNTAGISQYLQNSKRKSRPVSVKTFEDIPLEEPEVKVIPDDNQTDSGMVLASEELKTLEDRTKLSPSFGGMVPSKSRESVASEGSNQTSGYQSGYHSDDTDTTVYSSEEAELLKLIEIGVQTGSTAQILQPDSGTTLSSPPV
T5 sequence (P06241 whole entry, species assumed, the tested form may be a part): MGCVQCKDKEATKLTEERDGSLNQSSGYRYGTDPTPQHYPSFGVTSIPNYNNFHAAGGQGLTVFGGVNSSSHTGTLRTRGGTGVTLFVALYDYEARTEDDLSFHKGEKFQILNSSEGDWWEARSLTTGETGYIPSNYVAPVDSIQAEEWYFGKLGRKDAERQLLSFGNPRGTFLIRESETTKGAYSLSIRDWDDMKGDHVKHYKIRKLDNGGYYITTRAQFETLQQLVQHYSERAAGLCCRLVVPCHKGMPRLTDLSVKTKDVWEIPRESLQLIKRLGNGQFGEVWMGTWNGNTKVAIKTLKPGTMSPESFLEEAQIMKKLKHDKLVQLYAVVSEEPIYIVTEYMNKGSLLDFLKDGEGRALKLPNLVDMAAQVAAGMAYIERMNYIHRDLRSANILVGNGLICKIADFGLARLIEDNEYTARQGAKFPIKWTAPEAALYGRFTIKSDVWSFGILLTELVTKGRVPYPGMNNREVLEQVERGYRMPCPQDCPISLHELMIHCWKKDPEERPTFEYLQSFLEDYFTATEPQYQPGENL
T3 sequence (P08631 whole entry, the tested form may be a part): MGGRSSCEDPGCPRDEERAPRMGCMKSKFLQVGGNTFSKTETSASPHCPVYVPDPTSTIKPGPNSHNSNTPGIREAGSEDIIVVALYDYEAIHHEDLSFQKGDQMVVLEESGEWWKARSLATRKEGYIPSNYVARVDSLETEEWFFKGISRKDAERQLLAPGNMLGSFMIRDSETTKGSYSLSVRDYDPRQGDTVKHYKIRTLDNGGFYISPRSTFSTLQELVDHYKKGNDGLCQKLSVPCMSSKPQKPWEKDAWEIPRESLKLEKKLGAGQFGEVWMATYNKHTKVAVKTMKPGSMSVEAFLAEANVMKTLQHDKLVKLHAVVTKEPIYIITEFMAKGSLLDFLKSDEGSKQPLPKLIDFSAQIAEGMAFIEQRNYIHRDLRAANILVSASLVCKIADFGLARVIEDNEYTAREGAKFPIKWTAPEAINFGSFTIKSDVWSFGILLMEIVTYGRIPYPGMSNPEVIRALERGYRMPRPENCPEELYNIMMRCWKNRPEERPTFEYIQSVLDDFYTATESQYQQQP
T16 sequence (P09619 33-1106, species assumed): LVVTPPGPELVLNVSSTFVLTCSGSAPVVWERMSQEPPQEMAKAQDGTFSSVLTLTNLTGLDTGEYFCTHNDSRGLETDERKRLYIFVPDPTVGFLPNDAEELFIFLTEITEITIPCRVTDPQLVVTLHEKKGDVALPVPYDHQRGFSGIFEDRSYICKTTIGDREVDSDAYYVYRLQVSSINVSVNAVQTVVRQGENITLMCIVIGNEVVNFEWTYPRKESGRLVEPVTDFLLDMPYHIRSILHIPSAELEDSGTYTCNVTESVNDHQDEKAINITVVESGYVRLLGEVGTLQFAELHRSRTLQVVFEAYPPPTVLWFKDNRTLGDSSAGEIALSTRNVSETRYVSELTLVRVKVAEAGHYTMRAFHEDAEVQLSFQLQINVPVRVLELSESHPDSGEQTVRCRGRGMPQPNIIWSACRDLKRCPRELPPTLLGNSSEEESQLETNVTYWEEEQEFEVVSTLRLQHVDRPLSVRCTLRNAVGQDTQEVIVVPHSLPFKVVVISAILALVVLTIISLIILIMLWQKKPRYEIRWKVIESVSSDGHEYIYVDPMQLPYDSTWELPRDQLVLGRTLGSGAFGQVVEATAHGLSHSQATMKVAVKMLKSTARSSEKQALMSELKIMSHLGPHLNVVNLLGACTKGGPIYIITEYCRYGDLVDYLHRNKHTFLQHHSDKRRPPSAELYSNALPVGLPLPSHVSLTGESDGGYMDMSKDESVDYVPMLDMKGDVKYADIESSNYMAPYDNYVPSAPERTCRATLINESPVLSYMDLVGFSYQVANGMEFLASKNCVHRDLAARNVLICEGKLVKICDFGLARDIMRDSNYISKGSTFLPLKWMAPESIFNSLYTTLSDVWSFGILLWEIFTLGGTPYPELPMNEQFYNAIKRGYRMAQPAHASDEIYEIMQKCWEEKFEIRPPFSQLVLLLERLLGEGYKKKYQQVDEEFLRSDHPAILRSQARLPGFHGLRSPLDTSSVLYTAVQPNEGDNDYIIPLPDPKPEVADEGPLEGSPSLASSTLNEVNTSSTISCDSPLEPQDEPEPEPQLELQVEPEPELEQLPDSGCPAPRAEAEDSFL

Compound	IC50 (Tek) [µM]	IC50 (Ret-1) [µM]	IC50 (Hck-1) [µM]	IC50 (c-Met) [µM]	IC50 (Fyn) [µM]	IC50 (Src) [µM]	IC50 (Itk) [µM]	IC50 (Kdr) [µM]	IC50 (ErbB4) [µM]	IC50 (Zap-70) [µM]	IC50 (Flt-1) [µM]	IC50 (ErbB2) [µM]	IC50 (IGFR-1) [µM]	IC50 (EGFR) [µM]	IC50 (Lyn) [µM]	IC50 (PDGFRB) [µM]	IC50 (AKT) [µM]	IC50 (FGFR1) [µM]	IC50 (Lck) [µM]
COc1cc(Nc2ncnc(-n3c(NCc4ccc(F)cc4Cl)nc4ccccc43)n2)cc(OC)c1OC [Compound 951]	4.48 to 6.53	< 0.746	> 8.4	> 8.4	> 8.4	> 8.4	> 8.4	< 0.746	> 8.4	> 8.4	> 8.4	> 8.4	> 8.4	6.53 to 8.4	> 8.4	< 0.746	> 8.4	< 0.746	0.746 to 4.48
COc1cc(Nc2ncnc(-n3c(NCc4ccc([N+](=O)[O-])cc4)nc4ccccc43)n2)cc(OC)c1OC [Compound 952]	4.54 to 6.62	< 0.757	6.62 to 8.51	> 8.51	4.54 to 6.62	6.62 to 8.51	6.62 to 8.51	< 0.757	> 8.51	> 8.51	0.757 to 4.54	4.54 to 6.62	0.757 to 4.54	> 8.51	< 0.757	0.757 to 4.54	> 8.51	0.757 to 4.54	4.54 to 6.62
COc1cc(Nc2ncnc(Nc3cccc4ccccc34)n2)cc(OCCN2CCOCC2)c1OC [Compound 953]	0.796 to 4.78	0.796 to 4.78	0.796 to 4.78	> 8.95	< 0.796	< 0.796	6.96 to 8.95	0.796 to 4.78	0.796 to 4.78	> 8.95	0.796 to 4.78	0.796 to 4.78	4.78 to 6.96	< 0.796	< 0.796	< 0.796	> 8.95	0.796 to 4.78	< 0.796
COc1cc(Nc2ncnc(Nc3ccc(Cl)c4ccccc34)n2)cc(OC)c1OC [Compound 1031]	> 10.3	0.913 to 5.48	> 10.3	> 10.3	> 10.3	5.48 to 7.99	> 10.3	5.48 to 7.99	> 10.3	> 10.3	> 10.3	0.913 to 5.48	0.913 to 5.48	< 0.913	0.913 to 5.48	< 0.913	> 10.3	0.913 to 5.48	0.913 to 5.48
COc1cc(Nc2ncnc(-n3c(N[C@@H](C)c4ccccc4)nc4ccccc43)n2)cc(OC)c1OC [Compound 1033]	> 9.04	< 0.804	> 9.04	> 9.04	< 0.804	0.804 to 4.82	> 9.04	< 0.804	0.804 to 4.82	> 9.04	< 0.804	7.03 to 9.04	> 9.04	4.82 to 7.03	< 0.804	< 0.804	> 9.04	< 0.804	< 0.804
COc1cc(Nc2ncnc(-n3c(N[C@@H](CO)c4ccccc4)nc4ccccc43)n2)cc(OC)c1OC [Compound 1036]	4.67 to 6.82	< 0.779	> 8.76	> 8.76	0.779 to 4.67	0.779 to 4.67	> 8.76	< 0.779	4.67 to 6.82	> 8.76	< 0.779	0.779 to 4.67	6.82 to 8.76	0.779 to 4.67	< 0.779	< 0.779	> 8.76	< 0.779	< 0.779
COc1ccc(CNc2nc3ccccc3n2-c2ncnc(Nc3cc(OC)c(OC)c(OC)c3)n2)cc1 [Compound 1037]	> 8.76	0.779 to 4.67	> 8.76	> 8.76	> 8.76	> 8.76	> 8.76	< 0.779	> 8.76	> 8.76	4.67 to 6.82	> 8.76	> 8.76	> 8.76	> 8.76	> 8.76	> 8.76	0.779 to 4.67	> 8.76
